The source of these data is patent US6831190B1, “Guanidinomethyl cyclohexane carboxylic acid ester derivatives” (Teikoku Chemical Industries Co., Ltd., priority 1994, dated 2004).

Structures are written as SMILES. Values after ≈ are worked out from the molar mass of the structure shown. Where two headings read alike, the source gives them in different places. Bounds are passed on as bounds.

Type in all cases: cell-based
Assay [1] concerns Staphylococcus aureus No. 2 (MRSA). Description: MIC, standard method of Japanese Chemotherapy Academy. To be noted: Strain 14: Staphylococcus aureus No. 2 (MRSA). As for the experimental part: (§1) 1. Minimum Inhibitory Concentration (MIC) was measured in accordance with the standard method of Japanese Chemotherapy Academy (Chemotherapy, 29: 76-79, 1981).
(§2) And MIC of the compounds of Example 3, 36, 8, 14, 17, 21, 41 and 45 were measured.

Assay [2] relates to Bacillus subtilis ATCC 6633. Described as above. The following applies: for MIC: Strain 13: Bacillus subtilis ATCC 6633; for MIC against bacillus subcillus ATCC 6633: standard method of Japanese Chemotherapy Academy. The method, then: as §1, §2
Assay [3] concerns Staphylococcus aureus 209PJC. The description is as above. To be noted: Strain 11: Staphylococcus aureus 209PJC. The method, then: as §1, §2
Assay [4] has as its system Staphylococcus aureus ATCC 6538. Described as above. To be noted: Strain 12: Staphylococcus aureus ATCC 6538. The method, then:
as §1, §2

Assay [5] has as its system Helicobacter pylori ATCC 43629. Description: MIC, agar plating dilution (standard method of Japanese Chemotherapy Academy). Put shortly: (§3)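 Agar dilution MIC followed the Japanese Chemotherapy Academy standard method, on Brain Heart Infusion agar with 0.1% cyclodextrin and compounds dissolved in DMSO. Plates were incubated microaerobically at 37 °C for three days.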
Assay [6] relates to Helicobacter pylori ATCC 43504. The assay is described as above. The essentials:
as §3

Assay [7] concerns Escherichia coli NIH JC-2. Description: MIC, standard method of Japanese Chemotherapy Academy. The following applies: Objected Strain 3: Escherichia coli NIH JC-2. The method, then: as §1
The test system of assay [8] is Helicobacter pylori No. 20. Description: MIC, agar plating dilution, clinical segregation strain. The method, then:
(§4) Minimum Inhibitory Concentration (MIC) was measured in accordance with the standard method of Japanese Chemotherapy Academy (Chemotherapy, 29: 76-79, 1981). Sensitivity was measured with an agar plating dilution using Brain-Heart Infusion agar (Difco Co.) which was added 0.1% of cyclodextrin. […] of the solutions of the compounds which were obtained in examples of the present invention was prepared by dissolving in dimethylsulfoxide. […] Each of 1 ml of those prepared solutions was dispensed in share, after sterilization, 9 ml of sensitivity measuring medium which is kept at 50° C. was added to each, and they were sufficiently mixed. The mixture was used as a plate for measuring sensitivity. Brain Heart Infusion agar medium (Difco Co.), which was added 0.1% of cyclodextrin, was used as bacteria growing medium, and was cultured under microair at 37° C. for three days, and the number of bacteria thereof was adjusted to about 106/ml. This was used as a bacterial solution for inoculation. The medium was painted in each square about 2 cm with nichromic line loop. The medium was cultured under microair for three days at 37° C. […] The each result is shown at Table 4.

In assay [9] the test system is Helicobacter pylori No. 2. The assay is described as above. The method, then:
as §4

Assay [10] deals with Helicobacter pylori No. 4. Described as above. The method, then: as §4
The subject of assay [11] is Helicobacter pylori No. 28. The description is as above. As for the experimental part:
as §4

Assay [12] relates to Helicobacter pylori No. 3. The assay is described as above. The method, then: as §4
For assay [13], the system named is Helicobacter pylori No. 19. The description is as above. As for the experimental part:
as §4

Assay [14] deals with Helicobacter pylori No. 1. Described as above. As for the experimental part: as §4
Where [15] appears, read: Objected Strain 2: Helicobacter pylori ATCC 43629.
The mark [16] stands for this setting: Objected Strain 1: Helicobacter pylori ATCC 43504.
The mark [17] stands for this setting: Strain 9: Helicobacter pylori No. 20.
[18] abbreviates: Strain 5: Helicobacter pylori No. 2.
The mark [19] stands for this setting: Strain 7: Helicobacter pylori No. 4.
[20] abbreviates: Strain 10: Helicobacter pylori No. 28.
The mark [21] stands for this setting: Strain 6: Helicobacter pylori No. 3.
[22] abbreviates: Strain 8: Helicobacter pylori No. 19.
The mark [23] stands for this setting: Strain 4: Helicobacter pylori No. 1.

With `Cl.N=C(N)NC[C@H]1CC[C@H](C(=O)Oc2ccc(-c3ccc(C(=O)OCCc4ccc(Cl)cc4)cc3)cc2)CC1` [Example 45, trans-4-guanidinomethyl cyclohexane carboxylic acid[4-[4-[2-(4-chlorophenyl)ethyloxycarbonyl)phenyl]phenylester].hydrochloride], the MIC in assay [1] is more than 25 µg/mL; in assay [2], more than 25 µg/mL; in [3], more than 25 µg/mL; in assay [4], more than 25 µg/mL; in assay [5] (setting [15]), 0.39 µg/mL; in assay [6] (setting [16]) it was 0.39 µg/mL. The MIC is more than 25 µg/mL in assay [7]; 0.20 µg/mL in assay [8] (setting [17]); 0.39 µg/mL in [9] (setting [18]); 3.13 µg/mL in [10] (setting [19]); 0.39 µg/mL in assay [11] (setting [20]); 0.39 µg/mL in assay [12] (setting [21]). Besides, the figures for the MIC in assay [13] (setting [22]) and in assay [14] (setting [23]) were 0.20 µg/mL and 0.39 µg/mL, respectively.
Take `Cl.N=C(N)NC[C@H]1CC[C@H](C(=O)Oc2ccc(-c3ccc(Cl)cc3)cc2)CC1` [Example 8, trans-4-guanidinomethyl cyclohexane carboxylic acid [4-(4-chlorophenyl)phenylester].hydrochloride]: the MIC in assay [1] was determined as 1.56 µg/mL; in assay [2], 6.25 µg/mL; in assay [3], 0.78 µg/mL; in assay [4], 1.56 µg/mL; in [5] (setting [15]) it was 0.39 µg/mL; in assay [6] (setting [16]), 0.78 µg/mL. Further, the MIC was more than 25 µg/mL in [7]; 0.39 µg/mL in assay [8] (setting [17]); 0.39 µg/mL in assay [9] (setting [18]); 0.39 µg/mL in assay [10] (setting [19]); 0.39 µg/mL in [11] (setting [20]); 0.10 µg/mL in [12] (setting [21]). Moreover, the minimal inhibitory concentration (MIC) in assay [13] (setting [22]) worked out at 0.20 µg/mL; in assay [14] (setting [23]), 0.10 µg/mL.
As to `Cl.N=C(N)NC[C@H]1CC[C@H](C(=O)Oc2ccc(-c3ccc(C(=O)OCc4ccccc4)cc3)cc2)CC1` [Example 3, trans-4-guanidinomethyl cyclohexane carboxylic acid [4-(4-benzyloxycarbonylphenyl)phenylester].hydrochloride], the minimal inhibitory concentration (MIC) was 3.13 µg/mL in assay [1]; 25 µg/mL in assay [2]; 3.13 µg/mL in assay [3]; 6.25 µg/mL in [4]; 0.39 µg/mL in [5] (setting [15]); 0.78 µg/mL in assay [6] (setting [16]). The MIC in [7] was more than 25 µg/mL; in [9] (setting [18]), 0.39 µg/mL; in assay [10] (setting [19]), 0.39 µg/mL; in [12] (setting [21]), 0.10 µg/mL; in assay [14] (setting [23]) it was 0.20 µg/mL. The compound also showed an MIC against bacillus subcillus ATCC 6633 in [2] of more than 25 µg/mL.
Regarding `Cl.N=C(N)NC[C@H]1CC[C@H](C(=O)Oc2ccc(-c3ccc(C(=O)OCc4ccc(C(F)(F)F)cc4)cc3)cc2)CC1` [Example 21, trans-4-guanidinomethyl cyclohexane carboxylic acid [4-[4-(4-trifuluoromethyl benzyloxycarbonyl)phenyl]phenylester].hydrochloride], the MIC in assay [1] is more than 25 µg/mL; in [2], more than 25 µg/mL; in assay [3], 25 µg/mL; in assay [4], more than 25 µg/mL; in [5] (setting [15]) it was 0.78 µg/mL; in assay [6] (setting [16]), 0.39 µg/mL. Also, the MIC in [7] was more than 25 µg/mL; in assay [9] (setting [18]), 0.39 µg/mL; in [10] (setting [19]), 0.39 µg/mL; in [12] (setting [21]) it was 0.10 µg/mL; in [14] (setting [23]) it was 0.20 µg/mL. In addition, the MIC against bacillus subcillus ATCC 6633 in assay [2] is more than 25 µg/mL.
Consider `CC1(C)S[C@@H]2[C@H](NC(=O)[C@H](N)c3ccc(O)cc3)C(=O)N2[C@H]1C(=O)O` [Amoxicillin, amoxicillin, reference compound], for which the MIC was determined as 0.2 µg/mL (≈ 0.547 µM) in [1] (read-out: MIC); 0.05 µg/mL (≈ 0.137 µM) in assay [2] (ATCC6633, read-out: MIC); 0.1 µg/mL (≈ 0.274 µM) in assay [3] (read-out: MIC); 0.05 µg/mL (≈ 0.137 µM) in [4] (ATCC6538, read-out: MIC); 0.025 µg/mL (≈ 0.0684 µM) in assay [5] (ATCC43629, Objected Strain 2: Helicobacter pylori ATCC 43629, read-out: MIC); 0.05 µg/mL (≈ 0.137 µM) in assay [6] (ATCC43504, Objected Strain 1: Helicobacter pylori ATCC 43504, read-out: MIC). For the same compound, the MIC in assay [8] (Strain 9: Helicobacter pylori No. 20, read-out: MIC) came out at 0.025 µg/mL (≈ 0.0684 µM); in assay [9] (Strain 5: Helicobacter pylori No. 2, read-out: MIC) it was 0.1 µg/mL (≈ 0.274 µM); in [10] (Strain 7: Helicobacter pylori No. 4, read-out: MIC) it was 0.05 µg/mL (≈ 0.137 µM); in assay [11] (Strain 10: Helicobacter pylori No. 28, read-out: MIC) it was 0.05 µg/mL (≈ 0.137 µM); in assay [12] (Strain 6: Helicobacter pylori No. 3, read-out: MIC) it was 0.025 µg/mL (≈ 0.0684 µM); in assay [13] (Strain 8: Helicobacter pylori No. 19, read-out: MIC), 0.025 µg/mL (≈ 0.0684 µM). In assay [14] (Strain 4: Helicobacter pylori No. 1, read-out: MIC), the MIC was 0.1 µg/mL (≈ 0.274 µM).
For `CC(C)(C)c1ccc(COC(=O)c2ccc(-c3ccc(OC(=O)[C@H]4CC[C@H](CNC(=N)N)CC4)cc3)cc2)cc1.Cl` [Example 17, trans-4-guanidinomethyl cyclohexane carboxylic acid [4-[4-(4-t-butylbenzyloxy carbonyl)phenyl]phenylester].hydrochloride], the MIC was more than 25 µg/mL in assay [1]; more than 25 µg/mL in [2]; more than 25 µg/mL in assay [3]; more than 25 µg/mL in assay [4]; 0.39 µg/mL in [5] (setting [15]); 0.78 µg/mL in assay [6] (setting [16]). The MIC in assay [7] was more than 25 µg/mL; in assay [9] (setting [18]) it was 0.39 µg/mL; in [10] (setting [19]) it was 0.20 µg/mL; in assay [12] (setting [21]) it was 0.20 µg/mL; in assay [14] (setting [23]) it was 0.20 µg/mL. The compound further registered an MIC against bacillus subcillus ATCC 6633 in assay [2] of more than 25 µg/mL.
`CC1COc2c(N3CCN(C)CC3)c(F)cc3c(=O)c(C(=O)O)cn1c23` (stereo not shown) [Ophroxacine, ophroxacine, reference compound]: the MIC amounted to 12.5 µg/mL (≈ 34.6 µM) in [1]; 0.10 µg/mL (≈ 0.277 µM) in assay [2]; 0.39 µg/mL (≈ 1.08 µM) in assay [3]; 0.10 µg/mL (≈ 0.277 µM) in assay [4]; 0.78 µg/mL (≈ 2.16 µM) in assay [5] (setting [15]); 0.78 µg/mL (≈ 2.16 µM) in assay [6] (setting [16]). In addition, the MIC in assay [7] came to 0.10 µg/mL (≈ 0.277 µM); in assay [8] (setting [17]) it was 0.78 µg/mL (≈ 2.16 µM); in assay [9] (setting [18]), 12.5 µg/mL (≈ 34.6 µM); in assay [10] (setting [19]), 0.78 µg/mL (≈ 2.16 µM); in assay [11] (setting [20]), 1.56 µg/mL (≈ 4.32 µM); in [12] (setting [21]), 25.0 µg/mL (≈ 69.2 µM). The MIC in [13] (setting [22]) and in assay [14] (setting [23]) was 0.78 µg/mL (≈ 2.16 µM) in each case.

As a reminder, the MIC is the lowest concentration found to suppress growth.
